pKi: −log10 of the molar value. Like-named read-outs stand apart in the source and are kept apart here. Values belong to the compound of their own block, whether it stands above or below them. Where a SMILES comes first, the peptide text is derived from it.
Key:
[1] = target: T1, N-terminal site of human angiotensin-converting enzyme (Active N-terminal ACE) (Homo sapiens, UniProt P12821, H988K/H992K); assay: ACE inhibition, quenched fluorescence substrate, N-terminal mutant (C-terminal site inactive); format: biochemical; details: for degree of selectivity in favour of the N-terminal site (FIG. 3): N-terminal site at 100 nM, C-terminal site at 5 μM
T1 construct: made in house; host or cells: CHO cells
Protocol: (§1) Said mixtures were evaluated at final peptide concentrations of 200 nM in order to determine their ACE inhibitory capacity. To assay ACE, a new quenched fluorescence ACE substrate (Mca-Ala-Ser-Asp-Lys-Dpa) was developed, where Mca represents methoxy coumarine and Dpa 2-(N-dinitrophenyl)aminopropionic acid. Said substrate, which is […], emits an intense fluorescent signal after splitting, between the Asp and Lys residues, by ACE. Using this type of substrate, it is possible to test the inhibitory power of a very large number of compounds in Elisa plates.
(§2) The inhibitory power of the compounds is determined in a conventional competition test based on the breakdown of the quenched fluorescence substrate […]. The breakdown of said substrate by ACE results in the observation of a fluorescent signal at 400 nm, when the sample is excited at 328 nm. The inhibition experiments are conducted in Elisa plate wells, in volumes of 200 μl of buffer: pH 6.8, 50 mM Hepes, 200 mM NaCl, 1 mM ZnCl2, at 25° C., in a Dynatech Fluorolite 1000 type unit. The concentration of the substrate in a typical experiment is 20 μM. For the inhibition experiments, the inhibitor is placed in the presence of the enzyme for 45 min, and the reaction is then initiated by simply adding a very small volume of substrate. The inhibition percentages are calculated from the initial rate variations in the presence of inhibitor. The breakdown kinetics were determined from the record of the fluorescence variations over a 40 min time interval.
(§3) Said mutants were produced from CHO cells.

[2] = target: T2, C-terminal site of human angiotensin-converting enzyme (Active C-terminal ACE) (Homo sapiens, UniProt P12821, H390K/H394K); assay: ACE inhibition, quenched fluorescence substrate, C-terminal mutant (N-terminal site inactive); format: biochemical; details: C-terminal mutant of ACE from CHO cells
T2 construct: made in house; host or cells: CHO cells
Protocol: as §1, §2, §3

[3] = tested on: ACE N-terminal domain versus C-terminal domain; details: in vitro; cited from earlier work
plasma renin = assay: Plasma renin level (angiotensin I formed) after infusion; format: in vivo; details: mice; RXP 407 0.1, 1, 10 mg/kg; Lisinopril 10 mg/kg
Protocol: In this example, the effect of RXP 407 on the levels of renin, another enzyme involved in arterial pressure regulation, is determined. Inhibition of ACE with a conventional inhibitor of said enzyme stops the hydrolysis of angiotensin I into angiotensin II. Angiotensin is indeed one of the physiological substrates of ACE. The decrease in the angiotensin II level in plasma by a retrocontrol mechanism, increases the plasma level of renin, an enzyme directly involved in the production of angiotensin I, from angiotensinogen.
In this way, the inhibition of ACE may be monitored indirectly by the plasma renin level.
This level may be evaluated by the capacity of renin in plasma samples to hydrolyse excess angiotensinogen present in mouse plasma. The formation of angiotensin I is then measured by a radioimmunological assay and the renin level is expressed in ng of angiotensin I formed per ml of plasma and per hour of incubation.

[4] = Plasma concentration of tritiated RXP 407 after intravenous bolus; design: species or system rats; details: rat, in vivo, 5 mg/kg
Protocol: (§4) For this purpose, an RXP 407 comprising three tritium atoms on the N-acetyl group is synthesised to be able to conduct a study on the pharmacokinetics and metabolism of said molecule in rats, by injecting said product at doses of 0.1, 1 and 5 mg/kg by intravenous bolus.
The plasma concentration of RXP 407 as a function of time is then determined.
The results obtained are represented in FIG. 7. Curve 1 corresponds to 0.1 mg/kg, curve 2 to 1 mg/kg and curve 3 to 5 mg/kg. The dotted curve illustrates the Ki of RXP 407 (20 nM).

wild human ACE = target: T3, wild human ACE (Homo sapiens, UniProt P12821); assay: Inhibition of natural ACE as a function of RXP 407 concentration; format: biochemical; details: wild human ACE from CHO cells
T3 construct: made in house; host or cells: CHO cells
Protocol: as §2
In this example, the RXP 407 peptide is used as a natural ACE inhibitor, and the effect of the RXP 407 concentration (in nM) on the ACE inhibition percentage is studied.
The inhibitory power of the compound is determined as in example 1 using wild human ACE produced by CHO cells according to the protocol described in the reference Wei et al, J. Biol. Chem. (1992) 267, 13398-13405 [14].

[5] = Elimination and metabolism of tritiated RXP 407 in vivo; design: species or system rats; details: rat
Protocol: as §4

[6] = tested on: plasma Ac-Ser-Asp-Lys-Pro (Ac-SDKP); assay: Plasma Ac-SDKP concentration after 30 minute infusion; format: in vivo; details: mice, infusion for 30 minutes; RXP 407 0.1, 1, 10 mg/kg; Lisinopril 10 mg/kg
Protocol: For this purpose, the mice undergo an infusion of RXP 407 for 30 minutes, at doses of 0.1, 1 and 10 mg/kg and the Ac-Ser-Asp-Lys-Pro-(Ac-SDKP) peptide concentration of the mouse plasma is determined.
The Ac-Ser-Asp-Lys-Pro is determined by a competition immunoenzyme assay using polyclonal antibodies and Ac-SDKP linked to Electrophorus Electricus acetyicholinesterase.
The same plasma Ac-SDKP measurements are made on mice infused with Lisinopril of a 10 mg/kg dose and on non-infused control mice. Lisinopril is an inhibitor used in clinical practice which inhibits both active sites of ACE non-selectively.

plasma AcSDKP = details: single dose, healthy volunteer subjects; cited from earlier work
[7] = N-terminal mutant of ACE from CHO cells, read-out: Ki Active N-terminal ACE

T1 sequence (P12821 30-1306 H988K/H992K): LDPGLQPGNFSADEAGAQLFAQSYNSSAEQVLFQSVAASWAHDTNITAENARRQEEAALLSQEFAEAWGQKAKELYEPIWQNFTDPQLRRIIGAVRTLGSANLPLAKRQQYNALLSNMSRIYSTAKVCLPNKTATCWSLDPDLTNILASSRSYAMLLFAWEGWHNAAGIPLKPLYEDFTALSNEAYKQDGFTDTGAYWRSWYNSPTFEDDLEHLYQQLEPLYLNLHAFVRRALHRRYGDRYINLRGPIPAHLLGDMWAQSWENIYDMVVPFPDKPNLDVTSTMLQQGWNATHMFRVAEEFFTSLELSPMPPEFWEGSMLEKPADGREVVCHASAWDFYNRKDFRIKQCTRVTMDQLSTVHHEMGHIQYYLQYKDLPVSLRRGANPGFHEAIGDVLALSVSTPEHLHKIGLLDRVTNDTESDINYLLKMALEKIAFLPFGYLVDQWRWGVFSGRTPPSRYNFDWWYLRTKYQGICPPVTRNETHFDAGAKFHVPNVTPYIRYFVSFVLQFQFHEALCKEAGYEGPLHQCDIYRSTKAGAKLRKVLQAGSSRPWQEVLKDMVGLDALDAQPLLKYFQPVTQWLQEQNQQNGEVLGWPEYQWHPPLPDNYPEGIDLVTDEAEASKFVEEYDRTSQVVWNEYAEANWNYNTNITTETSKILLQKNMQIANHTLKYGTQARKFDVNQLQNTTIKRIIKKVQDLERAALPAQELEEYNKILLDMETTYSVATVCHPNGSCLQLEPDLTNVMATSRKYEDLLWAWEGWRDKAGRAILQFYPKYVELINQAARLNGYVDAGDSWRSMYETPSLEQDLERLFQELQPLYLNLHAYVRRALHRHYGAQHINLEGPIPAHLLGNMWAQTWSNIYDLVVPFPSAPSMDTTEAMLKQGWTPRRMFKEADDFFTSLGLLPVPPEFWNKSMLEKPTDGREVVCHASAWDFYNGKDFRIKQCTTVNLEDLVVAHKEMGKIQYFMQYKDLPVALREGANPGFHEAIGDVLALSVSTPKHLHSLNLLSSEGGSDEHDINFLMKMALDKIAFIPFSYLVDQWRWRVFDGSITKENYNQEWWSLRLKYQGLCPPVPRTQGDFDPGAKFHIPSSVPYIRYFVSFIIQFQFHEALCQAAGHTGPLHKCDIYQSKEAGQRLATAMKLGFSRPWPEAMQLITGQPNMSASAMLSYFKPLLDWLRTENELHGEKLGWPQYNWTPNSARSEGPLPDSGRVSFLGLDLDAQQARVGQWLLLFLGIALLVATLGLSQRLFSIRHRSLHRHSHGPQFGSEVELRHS
T2 sequence (P12821 30-1306 H390K/H394K): as the sequence (P12821 30-1306 H988K/H992K) above, with H361K, H365K, K959H, K963H counted along it
T3 sequence (P12821 30-1306): as the sequence (P12821 30-1306 H988K/H992K) above, with K959H, K963H counted along it

pKi [1, 7]: 7.82
pKi [2]: 6.70
Compound: CC(=O)N[C@@H](C)C(=O)NC(Cc1ccccc1)P(=O)(O)CC(C)C(=O)N[C@@H](C)C(N)=O (stereo partly shown) [Ac-Ala-Pheψ (PO2CH2) Ala-AlaNH2]

Compound: CC(=O)N[C@@H](CC(=O)O)C(=O)NC(Cc1ccccc1)P(=O)(O)CC(C)C(=O)N[C@@H](C)C(N)=O (stereo partly drawn) [Ac-Asp-Pheψ (PO2CH2) Ala-AlaNH2, Ac-Asp-PheΨ(PO2CH2)Ala-Ala-NH2]
pKi [1, 7]: 7.60
degree of selectivity in favour of the N-terminal site (FIG. 3) [1]: improve the degree of selectivity in favour of the N-terminal site

pKi [1, 7]: 8.70
pKi [2]: 8.15
Compound: CC(=O)N[C@@H](CC(=O)O)C(=O)NC(Cc1ccccc1)P(=O)(O)CC(C)C(=O)N[C@@H](C)C(=O)O (stereo partly shown) [Ac-Asp-Pheψ (PO2CH2) Ala-AlaOH]

Compound: CC(=O)N[C@@H](CO)C(=O)N[C@@H](CC(=O)O)C(=O)N[C@@H](CCCCN)C(=O)N1CCC[C@H]1C(=O)O [AcSDKP, N-Acetyl-Seryl-Aspartyl-Lysyl-Proline] (Ac-SDKP-OH)
hydrolysed more quickly by the N-terminal domain than by the C-terminal domain [3]: 50 times

pKi [1, 7]: 8.30
pKi [2]: 6.10
Compound: CC(CP(=O)(O)C(Cc1ccccc1)NC(=O)[C@@H](N)CC(=O)O)C(=O)N[C@@H](C)C(N)=O (stereo partly shown) [H2N-Asp-Pheψ (PO2CH2) Ala-AlaNH2]

pKi [1, 7]: 8.70
pKi [2]: 7.22
Compound: CC(CP(=O)(O)C(Cc1ccccc1)NC(=O)[C@@H](N)CC(=O)O)C(=O)N[C@@H](C)C(=O)O (stereo partly shown) [H2N-Asp-Pheψ (PO2CH2) Ala-AlaOH]

Compound: NCCCC[C@H](N[C@@H](CCc1ccccc1)C(=O)O)C(=O)N1CCC[C@H]1C(=O)O [Lisinopril, reference compound]
plasma renin level (FIG. 9) (plasma renin): induces an increase in the plasma renin level

Compound: CC(=O)N[C@@H](CC(=O)O)C(=O)N[C@@H](Cc1ccccc1)P(=O)(O)C[C@@H](C)C(=O)N[C@@H](C)C(N)=O [RXP 407, Ac-Asp-(R)Phe(PO2CH2)-(S)Ala-Ala-NH2]
plasma RXP 407 concentration [4]: 100 ng/mL
IC50 values with respect to the N and C-terminal sites of natural ACE (inflection points, FIG. 6) (wild human ACE): compatible with the Ki values measured using the ACE mutants
plasma renin level (FIG. 9) (plasma renin): does not induce an increase in renin
pKi [1, 7]: 7.92
pKi ([1]; value drawn in plasma concentration figure, read-out: Ki of RXP 407 (dotted curve of FIG. 7)): 7.70
Total [5]: 100.09±7 % of injected radioactivity
eliminated in urine [5]: 87%
metabolism (structure of the product in urine and faeces) [5]: does not undergo any metabolism
product detected in the airways [5]: No trace of this product is detected
dose excreted ([5]; iv, total radioactivity): 13%
plasma level of Ac-SDKP peptide (FIG. 8) [6]: very significant increase

Compound: C[C@H](CS)C(=O)N1CCC[C@H]1C(=O)O [captopril]
increase of the plasma level of AcSDKP (plasma AcSDKP): 6 to 7 fold

Compound: proline
degree of selectivity in favour of the N-terminal site (FIG. 3) [1]: improve the degree of selectivity in favour of the N-terminal site

From patent US6482797B1, “N-terminal site selective inhibitors of human angiotensin conversion enzyme (ACE)” (Commissariat A l'Energie Atomique, priority 1998, dated 2002)
